Source: patent US20250019369A1, “N-(4-aminocyclohexyl)pyrimidine-4-carboxamide derivatives as CD38 inhibitors” (Cerevance, Inc., priority 2021, published 2025)
Like-named read-outs stand apart in the source and are kept apart here.

Tests used:
[1] = PK brain permeability in C57BL/6 mice after single oral gavage; format: in vivo; conditions: 2 hours post dose; for concentration at 2 h / Kpu,u (unbound brain/plasma partition coefficient) at 2 h: male, C57BL/6, mouse; for concentration at 2 h: po, 10 mg/kg; for Kpu,u (unbound brain/plasma partition coefficient) at 2 h / brain permeability (in words): oral 10 mg/kg; for Kpu,u (unbound brain/plasma partition coefficient) at 2 h: read-out: Kpu,u (unbound partitioning coefficient, Cb,u/Cp,u); for brain permeability (in words): comment on Table 3
Method: The distribution of compounds into the brain in vivo was determined in C57BL/6 mice following single oral (po) gavage administration.
Test compounds were formulated at 1 mg/mL in 0.5% HPMC E4 M, 0.2% Tween 80 in water to achieve solutions or homogenous suspensions suitable for po administration.
Formulations were administered to 3 male C57BL/6 mice at a volume of 10 mL/kg resulting in a dose level of 10 mg/kg. Blood samples were collected at 1 and 2 hours post dose into tubes containing K2EDTA as anticoagulant, processed to plasma and stored at −60° C. or lower until LC-MS/MS analysis. Brains were harvested 2 hours post dose, rinsed with saline, dried, weighed and homogenised under ice cold conditions. Brain homogenates were stored at −60° C. or lower until LC-MS/MS analysis.
Dose formulation concentrations were verified using a LC-UV or LC-MS/MS method. Test compound concentrations in plasma and brain homogenate were quantitatively determined using LC-MS/MS methods developed in individual matrices against calibration curves with QC samples included and acceptance criteria as per CRO SOPs. Concentrations in brain homogenate were corrected for the dilution factor used to prepare the homogenate to give concentrations in whole brain tissue.
Plasma and brain concentration versus time data were reported and plotted in excel. The brain to plasma ratio at 2 hours post dose was calculated for each animal using the following equation:
Brain:plasma=brain concentration (ng/g) at 2 h/plasma concentration (ng/mL) at 2 h
As only unbound test compound is available to exert an effect on the target, unbound plasma (Cp,u) and unbound brain (Cb,u) concentrations were calculated by correcting the total concentrations for the unbound fraction in plasma (fu,p) or brain (fu,b) determined from in vitro plasma protein or brain tissue binding assays using the following equations: […]
The unbound partitioning coefficient (Kpu,u) was then calculated based on the ratio of Cb,u to Cp,u using the following equation: […]
In these studies, mice were orally administrated a 10 mg/kg dose and sacrificed 2 hours post dose and tissue samples (brain homogenate and plasma) were analyzed subsequently as described above.

[2] = Tissue binding assay, plasma (equilibrium dialysis); format: in vitro ADME; conditions: dialysis 4 hours at 37° C.
Method: [The source words this procedure for another target and reports this target under the same test.] (§1) Buffer preparation. A basic solution was prepared by dissolving 14.2 g/L Na2HPO4 and 8.77 g/L NaCl in deionized H2O. An acidic solution was prepared by dissolving 15.6 g/L NaH2PO4·2H2O and 8.77 g/L NaCl in deionized H2O. Using the acidic solution, the basic solution was then titrated to pH 7.4±0.1 and stored at 4° C. for up to 1 month. The stop solution was 100% CH3CN containing 200 ng/mL tolbutamide, 200 ng/mL labetalol and 50 ng/mL metformin.
(§2) Test method. Dialysis membrane strips were soaked in ultra-pure water at room temperature for ˜1 hour. Each membrane strip containing 2 membranes was separated and soaked in 20:80 EtOH/H2O (v/v) for ˜20 min, after which they were ready for use or were stored in the solution at 2-8° C. for up to 1 month. Prior to the experiment, the membrane was rinsed and soaked for 20 min in ultra-pure water. On the day of experiment, brain homogenate was thawed in a water bath at room temperature and incubated at 37° C. for 10 min before use. Test and control compounds were dissolved in DMSO to achieve 10 mM stock solutions. DMSO working solutions were prepared at 400 μM by diluting 10 μL of stock solution. To prepare the time zero (t=0) samples to be used for recovery determination, 50 μL aliquots of loading matrix were transferred in triplicate to the sample collection plate. The samples were immediately matched with opposite blank buffer to obtain a final volume of 100 μL of 1:1 matrix/dialysis buffer (v/v) in each well. 500 μL of stop solution were added to these t=0 samples. They were then stored at 2-8° C. pending further processes along with other post-dialysis samples. To load the dialysis device, an aliquot of 150 μL of the loading matrix was transferred to the donor side of each dialysis well in triplicate, and 150 μL of the dialysis buffer was loaded to the receiver side of the well. The dialysis plate was placed in a humidified incubator at 37° C. with 5% CO2 on a shaking platform that rotated slowly (about 100 rpm) for 4 hours. At the end of the dialysis, aliquots of 50 μL of samples were taken from both the buffer side and the matrix side of the dialysis device. These samples were transferred into new 96-well plates. Each sample was mixed with an equal volume of opposite blank matrix (buffer or matrix) to reach a final volume of 100 μL of 1:1 matrix/dialysis buffer (v/v) in each well. All samples were further processed by adding 500 μL of stop solution containing internal standards. The mixture was vortexed and centrifuged at 4000 rpm for about 20 min. An aliquot of 100 μL of supernatant of all the samples was then removed for LC-MS/MS analysis. The single blank samples were prepared by transferring 50 μL of blank matrix to a 96-well plate and adding 50 μL of blank PBS buffer to each well. Then the matrix-matched samples were further processed by adding 500 μL of stop solution containing internal standards, following the same sample processing method as the dialysis samples.
(§3) Data analysis. The % undiluted unbound, % undiluted bound and % recovery were calculated using the following equations:
(§4) % Undiluted Unbound=100*1/D/((1/(F/T)−1)+1/D)
(§5) % Undiluted Bound=100−% Undiluted Unbound
(§6) where F is the analyte concentration or peak area ratio of analyte/internal standard on the buffer (receiver) side of the membrane; T is the analyte concentration or peak area ratio of analyte/internal standard on the matrix (donor) side of the membrane; To is the analyte concentration or the peak area ratio of analyte/internal standard in the loading matrix sample at time zero; and D is the dilution factor determined as 4 in this assay.

[3] = Tissue binding assay, brain homogenate (equilibrium dialysis); format: in vitro ADME; conditions: dialysis 4 hours at 37° C., dilution factor 4
Method: as §1, §2, §3, §4, §5, §6

[4] = brain, read-out: total brain conc.
[5] = brain, total corrected for unbound fraction in brain, read-out: free brain conc.
[6] = plasma, read-out: total plasma conc.
[7] = plasma, total corrected for unbound fraction in plasma, read-out: free plasma conc.

| Compound | concentration at 2 h [1, 4] [nM] | concentration at 2 h [1, 5] [nM] | Kpu,u (unbound brain/plasma partition coefficient) at 2 h [1] | concentration at 2 h [1, 6] [nM] | concentration at 2 h [1, 7] [nM] | Mouse plasma (% unbound) [2] [% unbound] | Mouse brain (% unbound) [3] [% unbound] | brain permeability (in words) [1] |
| --- | --- | --- | --- | --- | --- | --- | --- | --- |
| Cc1cc(C(=O)N[C@H]2CC[C@H](NCC(F)F)CC2)nc(-n2ccnc2)n1 [Example 2, N-((1r,4r)-4-((2,2-difluoroethyl)amino)cyclohexyl)-2-(1H-imidazol-1-yl)-6-methyl-pyrimidine-4-carboxamide] | 2190 | 1390 | 0.65 | 9370 | 2130 | 22.7 | 63.4 |  |
| Cc1cc(C(=O)N[C@H]2CC[C@H](N3CCC(F)(F)C3)CC2)nc(-n2ccnc2)n1 [Example 10, N-((1r,4r)-4-(3,3-difluoropyrrolidin-1-yl)cyclohexyl)-2-(1H-imidazol-1-yl)-6-methyl-pyrimidine-4-carboxamide] | 5200 | 507 | 0.32 | 15100 | 1610 | 10.6 | 9.7 | excellent brain permeability |

Further lines, results first:

| concentration at 2 h [1, 4] [nM] | concentration at 2 h [1, 5] [nM] | Kpu,u (unbound brain/plasma partition coefficient) at 2 h [1] | concentration at 2 h [1, 6] [nM] | concentration at 2 h [1, 7] [nM] | Mouse plasma (% unbound) [2] [% unbound] | Mouse brain (% unbound) [3] [% unbound] | brain permeability (in words) [1] | Compound |
| --- | --- | --- | --- | --- | --- | --- | --- | --- |
| 5510 | 3800 | 1.33 | 21900 | 2850 | 13.0 | 68.9 |  | Cc1cc(C(=O)N[C@H]2CC[C@H](NCC(F)(F)F)CC2)nc(-n2ccnc2)n1 [Example 1, 2-(1H-imidazol-1-yl)-6-methyl-N-((1r,4r)-4-((2,2,2-trifluoroethyl)amino)cyclohexyl)pyrimidine-4-carboxamide] |
| 1660 | 224 | 0.48 | 6390 | 469 | 7.4 | 13.5 |  | O=C(N[C@H]1CC[C@H](NCC(F)F)CC1)c1cc(C2CC2)nc(-n2ccnc2)n1 [Example 3, 6-cyclopropyl-N-((1r,4r)-4-((2,2-difluoroethyl)amino)cyclohexyl)-2-(1H-imidazol-1-yl)pyrimidine-4-carboxamide] |
| 5470 | 197 | 0.4 | 11900 | 494 | 4.1 | 3.6 | excellent brain permeability | Cc1cc(C(=O)N[C@H]2CC[C@H](NC(C)(C)C(F)(F)F)CC2)nc(-n2ccnc2)n1 [Example 21, 2-(1H-imidazol-1-yl)-6-methyl-N-((1r,4r)-4-((1,1,1-trifluoro-2-methylpropan-2-yl)amino)cyclohexyl)pyrimidine-4-carboxamide] |
